We go through four molecules from patent US5880097A, “Tethered prodrugs” (Terrapin Techologies, Inc., priority 1996, dated 1999).

Structures are written as SMILES. *1 amine or outer side, *2 acyl side, *3 side chain or, on linkers, in order; H or OH if unused. Where a SMILES comes first, the peptide text is derived from it. [ ]: non-standard residue; d: D form. The star is where a group is joined. γGlu = O=C(O)[C@H](CCC(=O)[*:2])N[*:1]; dPhg = N[C@@H](C(=O)O)c1ccccc1; Bn = c1ccc(C*)cc1

For assay [1], the target named is T1, MRP system of human erythrocytes (Homo sapiens, UniProt P33527).
T1 construct: from tissue; host or cells: human erythrocytes (membranes; inside-out vesicles)
Description: Stimulation of basal Mg+2 stimulated ATPase activity in erythrocyte membranes. It counts as biochemical. The following applies: 37° C., 30 minutes; for Km / Vmax of ATPase stimulation: average of three determinations. Here is the method:
(§1) Two indirect measures of interaction of test compounds in the MRP system of human erythrocytes were used. The first was stimulation of basal Mg^+2 stimulated ATPase activity, the other was inhibition of transport of tritiated dinitrophenyl-S-glutathione.
In the first method, the method of Bartosz, M. et al, Biochem Mol Biol Int (1994) 34:521-529 was used. Briefly, the compounds were added to erythrocyte membranes in a medium containing 100 mM Tris HCl, […], 10 mM MgCl2, 1 mM ATP, 0.1 mM ouabain and 1 mM EGTA with an incubation at 37° C. for 30 minutes. Stimulation of ATPase activity was measured as described.

Assay [2] deals with T1, MRP system of human erythrocytes. Description: Inhibition of uptake of tritiated DNP-glutathione conjugate by inside-out vesicles of human erythrocytes. The format is biochemical. As to conditions: for inhibition of labeled conjugate (DNP-GSH) uptake: compound 1 μM, labeled DNP-GSH 5 μM, 15 minutes at 37° C., mean of three trials; for Interaction with MRP pump (reduction of transport of radiolabeled GSH analog): summary in words. As for the experimental part: as §1
In the alternative method, the uptake of tritiated DNP-glutathione conjugate by inside-out vesicles of human erythrocytes was determined as described in Akerboom, T. P. M. et al, Biochim Biophys Acta (1992) 1103.:115-119. The labeled DNP-GSH concentration was 5 μM and the compounds were added at a final concentration of 1 μM; uptake of labeled DNP-GSH was measured after 15 minutes incubation at 37° C.

The target of another assay is T2, GST A1-1 (Homo sapiens, UniProt P08263).
T2 sequence (P08263 1-222): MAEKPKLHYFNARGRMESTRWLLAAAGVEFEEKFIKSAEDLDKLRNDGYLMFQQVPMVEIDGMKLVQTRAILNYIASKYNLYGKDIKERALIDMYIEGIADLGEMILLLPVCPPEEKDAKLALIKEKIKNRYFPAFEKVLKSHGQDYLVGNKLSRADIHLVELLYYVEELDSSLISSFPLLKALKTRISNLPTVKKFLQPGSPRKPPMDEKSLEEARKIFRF
The following applies: as described in the PCT application WO 95/09866; cited from earlier work.

Another assay addresses GST P1-1 (Homo sapiens, UniProt P09211). The following applies: cited from earlier work.

One may read the Km as the concentration of substrate that gives half-maximal velocity.

T1 sequence (P33527 whole entry): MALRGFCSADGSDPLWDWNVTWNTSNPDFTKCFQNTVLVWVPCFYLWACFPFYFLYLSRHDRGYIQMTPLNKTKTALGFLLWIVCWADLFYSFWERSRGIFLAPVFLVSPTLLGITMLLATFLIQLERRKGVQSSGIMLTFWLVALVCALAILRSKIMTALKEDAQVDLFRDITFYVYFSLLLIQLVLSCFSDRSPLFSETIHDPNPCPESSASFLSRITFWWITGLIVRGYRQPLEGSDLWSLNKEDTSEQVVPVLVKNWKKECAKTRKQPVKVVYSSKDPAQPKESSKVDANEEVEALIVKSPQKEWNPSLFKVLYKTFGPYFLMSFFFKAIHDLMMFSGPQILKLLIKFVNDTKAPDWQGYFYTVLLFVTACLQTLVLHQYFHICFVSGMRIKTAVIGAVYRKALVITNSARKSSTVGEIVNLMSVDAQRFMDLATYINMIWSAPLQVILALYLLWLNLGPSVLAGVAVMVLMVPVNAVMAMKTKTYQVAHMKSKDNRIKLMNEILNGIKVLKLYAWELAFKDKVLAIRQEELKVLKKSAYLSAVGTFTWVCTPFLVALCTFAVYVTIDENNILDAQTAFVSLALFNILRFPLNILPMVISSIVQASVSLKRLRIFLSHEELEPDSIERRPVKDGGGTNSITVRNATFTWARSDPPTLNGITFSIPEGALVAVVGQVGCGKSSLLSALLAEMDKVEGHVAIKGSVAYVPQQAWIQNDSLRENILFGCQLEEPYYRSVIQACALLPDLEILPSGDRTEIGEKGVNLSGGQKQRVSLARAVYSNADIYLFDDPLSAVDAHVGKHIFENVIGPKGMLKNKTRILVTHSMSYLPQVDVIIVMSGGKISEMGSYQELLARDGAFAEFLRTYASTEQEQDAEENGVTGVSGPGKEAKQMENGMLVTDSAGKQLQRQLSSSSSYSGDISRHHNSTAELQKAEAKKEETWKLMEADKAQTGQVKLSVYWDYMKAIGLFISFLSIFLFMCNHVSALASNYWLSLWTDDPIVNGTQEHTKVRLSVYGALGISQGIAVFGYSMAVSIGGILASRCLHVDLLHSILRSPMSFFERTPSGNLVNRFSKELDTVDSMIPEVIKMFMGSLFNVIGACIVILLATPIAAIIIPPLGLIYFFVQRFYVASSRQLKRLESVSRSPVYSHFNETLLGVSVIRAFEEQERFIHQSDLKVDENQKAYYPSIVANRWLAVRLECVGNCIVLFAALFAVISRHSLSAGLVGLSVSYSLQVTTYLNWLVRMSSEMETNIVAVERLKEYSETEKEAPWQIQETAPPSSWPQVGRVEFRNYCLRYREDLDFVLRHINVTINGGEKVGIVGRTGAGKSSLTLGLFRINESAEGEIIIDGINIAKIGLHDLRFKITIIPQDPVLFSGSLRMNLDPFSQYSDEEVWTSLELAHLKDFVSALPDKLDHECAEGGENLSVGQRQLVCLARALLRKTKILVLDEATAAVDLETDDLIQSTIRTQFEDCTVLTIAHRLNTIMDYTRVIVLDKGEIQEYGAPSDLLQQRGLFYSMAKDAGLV
Sequence of GST P1-1 (P09211 2-210 limits assumed): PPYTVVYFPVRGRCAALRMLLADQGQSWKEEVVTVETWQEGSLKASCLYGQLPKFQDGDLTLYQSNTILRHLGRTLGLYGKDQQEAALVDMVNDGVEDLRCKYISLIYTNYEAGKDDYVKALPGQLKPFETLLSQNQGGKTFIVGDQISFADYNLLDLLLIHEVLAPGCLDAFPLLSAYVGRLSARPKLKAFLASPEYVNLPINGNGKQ

On to `N[C@@H](CCC(=O)N[C@@H](CSCc1ccccc1)C(=O)NCCC(=O)O)C(=O)O` [TER 106, γGlu-C(Bz)-βAla], for which, in assay [1], the Michaelis constant (Km) was determined as 1.82 mM and the “Vmax of ATPase stimulation” value is listed as 209.6 mM/mg protein per hr. Further, in assay [2], the “inhibition of labeled conjugate (DNP-GSH) uptake” value (“inhibition of labeled conjugate” below) came to 66.2% and the “Interaction with MRP pump (reduction of transport of radiolabeled GSH analog)” value was “interact with MRP so as to reduce the transport of radiolabeled GSH analog”.

Regarding `N[C@@H](CCC(=O)N[C@@H](CSCc1ccccc1)C(=O)N[C@@H](C(=O)O)c1ccccc1)C(=O)O` [TER 117, γGlu-C(Bz)-.o slashed.Gly] (γGlu-Cys(Bn)-[dPhg]-OH), the “Stimulation of ATPase activity” value in assay [1] was “did not stimulate ATPase activity”. In assay [2], the “inhibition of labeled conjugate” value is given as 0.2% and the “Interaction with MRP pump (reduction of transport of radiolabeled GSH analog)” value is reported as “does not”.

As to `N[C@@H](CCC(=O)N[C@@H](CSCc1ccccc1)C(=O)NCC(=O)O)C(=O)O` [TER 222, γGlu-C(Bz)-Gly], in assay [1], the Km was 0.385 mM and the “Vmax of ATPase stimulation” value was found to be 125.9 mM/mg protein per hr. Also, in assay [2], the “inhibition of labeled conjugate” value is given as 62.5% and the “Interaction with MRP pump (reduction of transport of radiolabeled GSH analog)” value is on record as “interact with MRP so as to reduce the transport of radiolabeled GSH analog”.

`N[C@@H](CCC(=O)N[C@@H](CS(=O)(=O)CCOP(=O)(N(CCCl)CCCl)N(CCCl)CCCl)C(=O)N[C@@H](C(=O)O)c1ccccc1)C(=O)O` [TER 286]: the “Susceptibility to cleavage by GST A1-1” value at GST A1-1 is “particularly susceptible to cleavage”. In addition, the “Susceptibility to cleavage by GST P1-1” value on GST P1-1 (as described in the PCT application WO 95/09866) is listed as “particularly susceptible to cleavage”. Further, the “Isoenzyme specificity of prodrug” value on GST P1-1 (cells having GST complements high in the P1-1 isoform) is recorded as “has the desired isoenzyme specificity”.
